Experimental findings from patent publication US8686144B2, “Condensed pyridine derivatives useful as potent inhibitors of the protein kinase CK2” (Commissariat a l'Energie Atomique et aux Energie Alternative, priority 2009, dated 2014) are described below.

Data set [1] relates to CK2. Kind of data set: cellular CK2 activity assay (YFP-based CK2 activity reporter in HeLa cells). As to conditions: 24 hours incubation, FIGS. 2A and 2B. Type of data set: cell-based, human. The procedure: Cellular CK2 activity assay: The plasmid pEYFPc1 expressing a chimeric YFP-based CK2 activity reporter was designed by adding six CK2 consensus phosphorylation sites at the C terminus of the YFP protein (pEYFPc1-SβS). pEYFPc1-SβS was obtained from pEYFPc1-CK2β after two subsequent rounds of mutations with the Quickchange-Site Directed mutagenesis kit (Stratagene) using for mutagenesis 1:
Then, the cells were collected and the washed pellets were solubilized for […] in ice with 100μΛ of lysis buffer (Tris 50 mM pH=7.4, 0.15 M NaCl, EDTA 2 mM, Triton X100 1/100, phosphatase inhibitor cocktail 2 (Sigma) 1/100, and leupeptine, aprotinine, AEBSF according to the manufacturer recommendations).

Data set [2] concerns double stranded oligonucleotide CAATCGGATCGAATTCGATCCGATTG
Description: DNA intercalation by FID (Fluorescence Intercalator Displacement, thiazole orange). Type of data set: binding. As to conditions: 10 μM compound. The procedure: (§1) 1. Materials and Methods • Effect of compounds of formula (I) on CK2 activity is measured according to Prudent et al. (Prudent, R. et al. (2008) Mol Cell Biochem 316(1-2): 71-85): compounds were tested in a radioactive assay performed in a final volume of 18 μL containing 3 μL of compounds at the indicated concentrations, 3 μL, of CK2α (36 ng) and a mixture containing 100 μM of peptide substrate ([…], SEQ ID No: 1), 10 mM MgCl2, and 100 μM [γ-^32P]-ATP. Assays were performed at room temperature for 5 min before termination by the addition of 60 μL of 4% TCA. ^32P incorporation into the peptide substrate was determined as previously described in Filhol et al. (Biochemistry 29: 9928-36, 1990). • Effect of compounds of formula (I) on c-kit activity is measured according to the manufacturer's recommendations (Millipore, reference 14-559): in a final reaction volume of 25 μL, c-Kit (5-10 mU) is incubated with 8 mM MOPS pH 7.0, 0.2 mM EDTA, 10 mM MnCl2, 25 μM ATP, 0.1 mg/mL poly(Glu, Tyr) 4:1, 10 mM MgAcetate and [γ-33P-ATP] […] Following an incubation of 30 minutes at 37° C., reaction mixture is resolved on an agarose gel (1% agarose) and DNA topoisomers are quantified by densitometric analysis. • Effect of compounds of formula (I) on DNA intercalation. DNA intercalation was performed using FID (Fluorescence Intercalator Displacement). […] In this assay, compound auto-fluorescence was negative.

The subject of data set [3] is HeLa cells. Kind of data set: inhibition of HeLa cell proliferation (CellTiter-Glo viability). Format: cell-based, human. As to conditions: 48 hours treatment, FIG. 3. The procedure:
(§2) 1. […] The following day, the culture medium was replaced with fresh medium (Dulbecco's medium, Invitrogen Life Technologies, Inc., supplemented with 10% (v/v) fetal calf serum (FBS, BioWest)), containing increasing concentration of inhibitors or an equivalent amount of DMSO as control. Two days later, cell viability was measured with the CellTiter-Glo® Luminescent Cell Viability Assay (Promega) according to the manufacturer recommendations. • The inhibition of U373 cells proliferation is assessed with the same protocol that HeLa cells: one day after plating, U373 cells are treated with 5 μM of Compound 1, Compound 2 or DMSO. Results are given relative to the luminescence recorded for DMSO.

The subject of data set [4] is U373 cells. Kind of data set: cell cycle distribution analysis (propidium iodide), U373. Type of data set: cell-based, human. As to conditions: 5 μM, 24 hours. How it is done:
(§3) Cells previously treated with Compound 1 and Compound 2 in example 4 are then submitted to a cell cycle analysis following propidium iodide incorportation.
(§4) Cell cycle distribution analysis: cells were plated in 6-well plates. The following day, cells were treated with 5 μM compounds or an equivalent amount of DMSO. After 24 hours, cells were harvested, fixed with ethanol 70% for 30 minutes, and labeled with propidium iodide 10 μg/mL for 30 min. DNA content was analysed with FACScalibur and Cell Quest software.

Data set [5] deals with CK2α (Homo sapiens, UniProt P68400). Description: CK2 radioactive kinase assay (32P incorporation into peptide substrate). Format: biochemical. As to conditions: 100 μM ATP; for % remaining CK2 activity (10 μM): 10 μM compound. The procedure:
1. Materials and Methods • Effect of compounds of formula (I) on CK2 activity is measured according to Prudent et al. (Prudent, R. et al. (2008) Mol Cell Biochem 316(1-2): 71-85): compounds were tested in a radioactive assay performed in a final volume of 18 μL containing 3 μL of compounds at the indicated concentrations, 3 μL, of CK2α (36 ng) and a mixture containing 100 μM of peptide substrate ([…], SEQ ID No: 1), 10 mM MgCl2, and 100 μM [γ-^32P]-ATP. Assays were performed at room temperature for 5 min before termination by the addition of 60 μL of 4% TCA. ^32P incorporation into the peptide substrate was determined as previously described in Filhol et al. (Biochemistry 29: 9928-36, 1990). • Effect of compounds of formula (I) on c-kit activity is measured according to the manufacturer's recommendations (Millipore, reference 14-559): in a final reaction volume of 25 μL, c-Kit (5-10 mU) is incubated with 8 mM MOPS pH 7.0, 0.2 mM EDTA, 10 mM MnCl2, 25 μM ATP, 0.1 mg/mL poly(Glu, Tyr) 4:1, 10 mM MgAcetate and [γ-33P-ATP] (specific activity approx. 500 cpm/pmol, concentration as required). The reaction is initiated by the addition of the MgATP mix. After incubation for 40 minutes at room temperature, the reaction is stopped by the addition of 5 μL of a 3% phosphoric acid solution. 10 μL of the reaction is then spotted onto a Filtermat A and washed three times for 5 minutes in 75 mM phosphoric acid and once in methanol prior to drying and scintillation counting. • Effect of compounds of formula (I) on topoisomerase II activity is measured according to the manufacturer's recommendations (Vaxron, TA-001): in a final reaction volume of 10 μL, 1U topoisomerase IIα is incubated with 0.1M Tris-HCl, pH 8.0, 2 mM DTT, 20 mM MgCl2, 4 mM ATP, 0.2 M NaCl, 2 μg BSA, 500 ng Kinetoplast DNA and compounds to be assayed (from 10 mM stock solution in DMSO, final concentration of DMSO<1%). The reaction is initiated by the addition of topoisomerase IIα. After incubation for 15 min at 37° C., reaction is stopped by addition of 1 μL of stop solution (3% SDS, 1.5 mg·mL^−1 Proteinase K). Following an incubation of 30 minutes at 37° C., reaction mixture is resolved on an agarose gel (1% agarose) and DNA topoisomers are quantified by densitometric analysis. • Effect of compounds of formula (I) on DNA intercalation. DNA intercalation was performed using FID (Fluorescence Intercalator Displacement). This assay based on the loss of fluorescence of a DNA-bound intercalator (thiazole orange) upon displacement by a DNA-binding molecule. Briefly, the double stranded oligonucleotide […] […] After 20 minutes incubation, fluorescence is measured (excitation: 490 nm, emission: 520 nm). In this assay, compound auto-fluorescence was negative.

Data set [6] has as its system U373 cells. Kind of data set: inhibition of U373 cell proliferation (CellTiter-Glo viability). As to conditions: 5 μM, 48 hours treatment, FIG. 4. Format: cell-based, human. The procedure:
as §2

The target of data set [7] is T1, topoisomerase IIα (Homo sapiens, UniProt P11388).
T1 construct: purchased Vaxron TA-001
Description: topoisomerase II activity assay (kinetoplast DNA, Vaxron TA-001). Type of data set: biochemical. As to conditions: 10 μM compound. How it is done:
as §1

Data set [8] concerns HeLa cells. Kind of data set: cell cycle distribution analysis (propidium iodide), HeLa. As to conditions: 5 μM, 24 hours. Type of data set: cell-based, human. The procedure:
as §3, §4

For data set [9], the target named is T2, c-Kit (Homo sapiens, UniProt P10721).
T2 construct: purchased Millipore 14-559
Description: c-kit kinase activity assay (Millipore 14-559). Format: biochemical. As to conditions: 10 μM compound. The procedure: as §1

Data set [10] deals with U373 cells. Description: colony formation assay by soft agar culture. As to conditions: Homo sapiens, U373 MG, 360 h, 15 days. Type of data set: cell-based. The procedure: The effect of compound on tumor cell tumorigenesis is tested on a colony formation assay.
The inhibition of colony formation assay by soft agar culture is performed as follows: U373 cells were poured on a 0.6% agar-DMEM-10% FBS layer, imbedded in 0.3% agar-DMEM-10% FBS, containing compounds (5 μM) or equivalent amount of DMSO. Number of colonies (more than 20 cells) was counted 15 days later in 10 fields/well. Experiment was done in duplicate at least twice.

Data set [11] concerns U373 cells. Description: in vivo inhibition of tumour growth, U373 xenograft in athymic nude mice. How it is done: All experimental procedures adhered to local ethical committee (Comité régional d'éthique pour l'Expérimentation animale CREEA, Rhône Alpes—protocol n°286). Female Harlan athymic nude mice (6-8 weeks) were inoculated s.c. into the right flank with 7.5×10^5 U373 cells. When tumors reaches±50 mm^3 (volume=length×width×height), animals were treated i.p. 3 times weekly (every two days) for 2 weeks, with Compound 1 (0.14 mg/100 μL/injection-4 mice) dissolved in PEG3350 22.5%, BSA 0.45% or equivalent DMSO (10% final-3 mice) dissolved in same buffer (control group). Body weight and tumor volume were determined twice weekly. The experiment was terminated when tumor volume was about 1000 mm^3. Results are presented as mean±standard error of the mean (SEM).

Sequence of CK2α (P68400 whole entry): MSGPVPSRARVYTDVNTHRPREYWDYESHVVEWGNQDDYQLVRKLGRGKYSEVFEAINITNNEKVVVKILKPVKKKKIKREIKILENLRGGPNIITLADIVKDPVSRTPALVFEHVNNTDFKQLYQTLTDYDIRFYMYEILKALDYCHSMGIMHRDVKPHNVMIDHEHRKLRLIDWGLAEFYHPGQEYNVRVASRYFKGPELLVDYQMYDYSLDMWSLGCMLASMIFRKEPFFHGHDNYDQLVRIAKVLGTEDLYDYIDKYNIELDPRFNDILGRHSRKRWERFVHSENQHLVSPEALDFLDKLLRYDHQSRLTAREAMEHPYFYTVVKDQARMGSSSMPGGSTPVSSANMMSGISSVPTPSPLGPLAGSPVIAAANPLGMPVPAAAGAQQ
T2 sequence (P10721 26-976): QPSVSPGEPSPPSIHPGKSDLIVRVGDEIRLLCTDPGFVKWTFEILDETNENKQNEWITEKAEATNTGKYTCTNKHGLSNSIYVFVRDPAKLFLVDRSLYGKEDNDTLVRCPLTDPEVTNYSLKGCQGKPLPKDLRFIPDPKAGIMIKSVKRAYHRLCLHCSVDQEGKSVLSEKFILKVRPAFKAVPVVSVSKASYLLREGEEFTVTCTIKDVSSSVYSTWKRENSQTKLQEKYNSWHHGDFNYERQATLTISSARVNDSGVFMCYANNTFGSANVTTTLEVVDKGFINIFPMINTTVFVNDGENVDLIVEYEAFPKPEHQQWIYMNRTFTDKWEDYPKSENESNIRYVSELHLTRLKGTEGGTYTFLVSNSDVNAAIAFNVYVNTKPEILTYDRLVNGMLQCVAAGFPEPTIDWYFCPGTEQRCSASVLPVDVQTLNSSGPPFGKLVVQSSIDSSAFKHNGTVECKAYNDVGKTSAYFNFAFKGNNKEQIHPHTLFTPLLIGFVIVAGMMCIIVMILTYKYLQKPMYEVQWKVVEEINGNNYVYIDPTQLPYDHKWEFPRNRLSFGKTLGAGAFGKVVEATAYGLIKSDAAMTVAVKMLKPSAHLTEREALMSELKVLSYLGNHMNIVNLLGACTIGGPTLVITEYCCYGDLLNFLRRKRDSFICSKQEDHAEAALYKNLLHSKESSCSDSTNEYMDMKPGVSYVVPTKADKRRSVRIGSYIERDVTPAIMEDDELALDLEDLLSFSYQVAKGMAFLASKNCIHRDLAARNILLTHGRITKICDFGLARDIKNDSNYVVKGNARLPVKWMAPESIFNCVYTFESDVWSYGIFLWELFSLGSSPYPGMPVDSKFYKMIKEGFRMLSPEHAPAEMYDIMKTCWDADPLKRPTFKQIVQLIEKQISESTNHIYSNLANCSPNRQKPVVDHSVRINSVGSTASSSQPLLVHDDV
T1 sequence (P11388 whole entry): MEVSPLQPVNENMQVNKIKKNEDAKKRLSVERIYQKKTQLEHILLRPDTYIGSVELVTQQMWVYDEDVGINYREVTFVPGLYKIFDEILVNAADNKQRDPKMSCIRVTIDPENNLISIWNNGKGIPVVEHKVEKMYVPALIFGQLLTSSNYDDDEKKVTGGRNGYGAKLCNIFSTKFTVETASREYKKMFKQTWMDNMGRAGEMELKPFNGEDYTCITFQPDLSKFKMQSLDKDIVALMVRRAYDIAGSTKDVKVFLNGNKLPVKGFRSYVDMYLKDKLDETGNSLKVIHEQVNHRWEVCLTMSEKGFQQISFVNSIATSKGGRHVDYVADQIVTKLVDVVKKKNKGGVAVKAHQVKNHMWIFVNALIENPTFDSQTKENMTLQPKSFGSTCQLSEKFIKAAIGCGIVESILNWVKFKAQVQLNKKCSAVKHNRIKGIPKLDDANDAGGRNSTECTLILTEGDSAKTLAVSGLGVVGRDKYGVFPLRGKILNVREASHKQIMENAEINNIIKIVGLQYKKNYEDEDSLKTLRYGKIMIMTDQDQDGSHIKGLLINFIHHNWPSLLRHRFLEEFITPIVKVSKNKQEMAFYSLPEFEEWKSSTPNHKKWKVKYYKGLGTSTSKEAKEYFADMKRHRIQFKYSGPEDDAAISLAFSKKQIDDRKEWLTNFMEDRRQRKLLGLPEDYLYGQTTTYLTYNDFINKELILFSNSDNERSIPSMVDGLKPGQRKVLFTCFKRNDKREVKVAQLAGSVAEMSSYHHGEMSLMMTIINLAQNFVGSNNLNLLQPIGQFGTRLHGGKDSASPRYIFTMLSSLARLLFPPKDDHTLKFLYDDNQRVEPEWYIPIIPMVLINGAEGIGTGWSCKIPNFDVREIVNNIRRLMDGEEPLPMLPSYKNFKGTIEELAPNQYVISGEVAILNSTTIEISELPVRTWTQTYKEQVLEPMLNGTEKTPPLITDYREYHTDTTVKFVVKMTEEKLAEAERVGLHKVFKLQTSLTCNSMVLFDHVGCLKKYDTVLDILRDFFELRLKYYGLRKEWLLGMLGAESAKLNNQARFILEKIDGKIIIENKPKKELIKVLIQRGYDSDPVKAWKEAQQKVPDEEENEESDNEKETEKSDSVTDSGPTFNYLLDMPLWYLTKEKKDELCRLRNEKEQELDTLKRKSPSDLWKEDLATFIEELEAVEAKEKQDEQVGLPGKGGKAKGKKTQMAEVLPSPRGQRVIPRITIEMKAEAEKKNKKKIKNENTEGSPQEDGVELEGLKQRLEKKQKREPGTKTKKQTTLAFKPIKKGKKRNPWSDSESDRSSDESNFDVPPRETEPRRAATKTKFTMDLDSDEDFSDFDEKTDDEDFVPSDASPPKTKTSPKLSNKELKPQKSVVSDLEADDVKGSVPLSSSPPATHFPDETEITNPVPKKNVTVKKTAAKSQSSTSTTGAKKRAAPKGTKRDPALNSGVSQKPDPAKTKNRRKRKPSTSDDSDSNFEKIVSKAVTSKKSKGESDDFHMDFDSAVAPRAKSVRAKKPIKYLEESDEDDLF

In the case of `Cc1cnc(Cl)c2c1[nH]c1ccc3cc(O)ccc3c12` [Compound 2], the “phosphorylated CK2 reporter isoform” value in [1] is given as “disappeared in a dose-dependent manner”. For the same molecule, the “% DNA intercalation (10 μM)” value in data set [2] is on record as 66.4%. In addition, the “inhibition of HeLa cell proliferation” value in data set [3] is “strong inhibition of tumour cell proliferation even at low doses”. The cell cycle effect result in data set [4] was “cell cycle arrest with a substantial accumulation in G2/M-phase”. Also, in data set [5], the “% remaining CK2 activity (10 μM)” value is listed as 3.5% and the IC50 came out at 0.67 µM. In addition, the “reduction of U373 cell proliferation” value in [6] is recorded as “potent to reduce cell proliferation”. The “% remaining topoisomerase II activity (10 μM)” value in [7] is 77%. Also, in data set [8], the apoptotic cells entry is given as “concomitant increase of apoptotic cells” and the cell cycle effect result is “cell cycle arrest with a substantial accumulation in G2/M-phase”. Besides, the “% remaining c-kit activity (10 μM)” value in data set [9] amounted to 16.9%.
`Cc1cnc(Cl)c2c1[nH]c1c3ccc(O)cc3ccc12` [Compound 1]: the “phosphorylated CK2 reporter isoform” value in [1] is listed as “disappeared in a dose-dependent manner”. For the same molecule, the “% DNA intercalation (10 μM)” value in [2] was 62.0%. For the same molecule, the “inhibition of HeLa cell proliferation” value in [3] is listed as “strong inhibition of tumour cell proliferation even at low doses”. The same molecule displayed an inhibition at 5 µM in data set [10] of 50%. Further, the cell cycle effect result in data set [4] is recorded as “cell cycle arrest with a substantial accumulation in G2/M-phase”. In addition, in data set [5], the “% remaining CK2 activity (10 μM)” value is 1.4% and the IC50 was determined as 1.5 µM. The “reduction of U373 cell proliferation” value in data set [6] is listed as “potent to reduce cell proliferation”. For the same molecule, the “% remaining topoisomerase II activity (10 μM)” value in data set [7] is listed as 106.8%. Also, the “tumor size, times smaller than DMSO group” value in [11] (15 days post first compound injection, i.p. 0.14 mg/injection) is listed as 4.7 times. The tolerability result in data set [11] (at the doses applied) was “well tolerated”. Further, the “variations in body weight” value in [11] (i.p. 0.14 mg/injection, 3 times weekly for 2 weeks) is recorded as “not statistically significant”. The “tumor incidence compared to DMSO” value in [11] (i.p. 0.14 mg/injection, 3 times weekly for 2 weeks, all time points) is listed as “significantly reduced”. In addition, in [8], the apoptotic cells result was “concomitant increase of apoptotic cells” and the cell cycle effect entry was “cell cycle arrest with a substantial accumulation in G2/M-phase”. Besides, in data set [9], the “% remaining c-kit activity (10 μM)” value is 60.4%.
